Results from PMC2651799 (Nucleic Acids Research, 2009).

Biological target: T1, RmtA (Pseudomonas aeruginosa, UniProt Q8GRA1)
T1 sequence (Q8GRA1 1-251): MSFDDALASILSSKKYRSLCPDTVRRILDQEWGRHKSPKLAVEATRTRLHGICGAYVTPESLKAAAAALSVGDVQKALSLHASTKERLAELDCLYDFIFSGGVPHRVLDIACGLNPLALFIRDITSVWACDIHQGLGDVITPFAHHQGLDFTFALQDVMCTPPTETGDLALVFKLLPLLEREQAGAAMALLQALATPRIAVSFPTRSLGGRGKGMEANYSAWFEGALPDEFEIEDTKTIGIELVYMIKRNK
Assay type: biochemical

| SMILES | IC50 [µM] |
| --- | --- |
| Nc1ncnc2c1ncn2[C@@H]1O[C@H](C[C@@H](N)CC[C@H](N)C(=O)O)[C@@H](O)[C@H]1O [sinefungin] | 19.95 ± 0.09 |
| Nc1ncnc2c1ncn2[C@@H]1O[C@H](CSCC[C@H](N)C(=O)O)[C@@H](O)[C@H]1O [SAH] | 9.33 ± 0.07 |
